The test system of data set [1] is intrahepatic tight junctions. The experiment in a line: Constant pressure retrograde biliary infusion in mice (flow rate, resistance, paracellular leakage). The settings on record: for Ave Counts (paracellular leakage): Cholestatic 04 day mice. The text has this:
FIG. 35 is a diagram of a working example of a system for constant-pressure intralumenal delivery. […] A working model was regulated using an adaptation of a Cole-Palmer pressure controller. Infusion fluid from the reservoir flows through capillary glass tubes 224 on its way to an infusion line 226. Flow rates may then be determined by tracking air bubbles 228 in the capillary glass tubes 224 with a ruler 229. A pressure sensor 230 detects the pressure of the infusion fluid at a location near the infusion line 226.
To set up the system, fluid was added to the reservoir, and the system was rinsed and filled with fluid. The infusion line 226 was then surgically placed into the animal's organ. […] By adjusting the controller setting the desired pressure could be obtained at the pressure sensor, which was kept at the same height (z=0) as the animal. The reading at the pressure sensor was thus equal to the applied pressure (the pump pressure) plus the pressure head (the pressure increase due to the change in height between the top of the liquid level in the reservoir and the height of the infusion line). The infusion line was kept at the same height as the pressure sensor and the animal on the operating table. Alternate systems could be of course be adapted in which a constant pressure is maintained at the pressure sensor and not at the top of the Reservoir. This would be most important when a large volume of fluid is infused.
The flow rate of infusion fluid was experimentally recorded in the following way: the cross sectional area of the bubble tube was determined by injecting a known volume of water (from syringe 232) into a measured length of the bubble tube. The cross sectional area was 0.0233 cm^2 (0.35 cc in 15 cm). When the flow started, an air bubble was slowly injected into the infusion fluid flow. The bubble then traveled down the bubble tube. At the end of the tube, the bubble would rise up into the bubble trap 234 and displace an equal volume of liquid. For each bubble 25 time points were recorded, on 1-cm intervals of ruler 229. The time versus distance that the bubble had traveled could be plotted and the slope of this line was the velocity of the bubble. Multiplying the slope by the cross sectional area of the bubble tube gave the average flow rate of the infusion fluid. This method of flow rate measurement is a working and experimental model for the purpose of illustration. In practice, flow rates may also be determined by ultrasonic or other methods known to those of skill in the art.
Constant pressure infusion was evaluated in mice using the retrograde biliary infusion setup described previously. The constant pressure device was substituted for the microinfusion pump. […] Infusion flow rates were recorded using the bubble tube method described above. Blood samples were obtained and evaluated as described above.
Solutes evaluated included sucrose (molecular weight 370), inulin (molecular weight 5,200), and Dextran (molecular weight 70,000).

Data set [2] concerns interhepatocyte tight junctions. The experiment in a line: Retrograde biliary infusion of lanthanum chloride, electron microscopy of intrahepatic distribution. The class given is in vivo, mice. Conditions: 720 μl of 5 mM at 2 or 8 μl/second. How it is done: Movement of fluid from the intralumenal space may conceivably occur either directly across physically opened tight junctions or indirectly by altered rates of transepithilial transcytosis. […] The ability of retrograde biliary infusion to disrupt tight junctions was evaluated by qualitative ultrastructural examination of the intrahepatic distribution of lanthanum chloride, a heavy metal normally impermeant to structurally intact tight junctions.
Animals were infused retrograde with either 5 mM lanthanum chloride (Sigma) or 0.9% NaCl vehicle. Three infusions of 240 μl volume were administered per animal at a rate of 2 or 8 μl/second, with a 10 second pause between infusions. Freshly removed tissue was fixed overnight in 2% glutaraldehyde in 0.2 M cacodylate buffer. Following standard processing and embedding, 0.5 micrometer thick sections were stained with uranyl acetate and lead citrate. Sections were then examined using a Philips 201 Electron Microscope.

Data set [3] has as its system urinary bladder epithelial cell tight junctions. Description: Intralumenal delivery to the rabbit urinary bladder (electron and fluorescent microscopy). Conditions: 5 mM, 10 minutes. The class given is in vivo, Dutch Belted Rabbits. The text has this: As an experimental model to mimic retrourethral delivery, male Dutch Belted Rabbits (1-2 Kg BW) had PE-50 tubing placed in the lumen of each […] and advanced so that the tips were within the lumen of the urinary bladder. One ureteral catheter was connected to a pressure transducer and used for recording intralumenal pressure. The other ureteral catheter was connected to a microinfusion pump. Microvascular clips were placed on the ureters to prevent retrograde reflux. The urethra was occluded using a vascular loop. 5 mM Lanthanum Chloride was infused so that the intralumenal pressure was either 25 mm Hg or 50 mm Hg.
Tissues were removed 10 minutes later and processed for electron microscopy. […] Following the administration of 200 nm fluorescent latex microspheres at 50 mm-[…] intralumenal pressure, the urinary bladder was removed and processed for fresh-frozen sections.

The mark [4] stands for this setting: constant pressure retrograde biliary infusion.

For the compound `OC[C@H]1O[C@@](CO)(O[C@H]2O[C@H](CO)[C@@H](O)[C@H](O)[C@H]2O)[C@@H](O)[C@@H]1O` [[14C]-sucrose], the “appearance in systemic bloodstream” value in data set [1] (mouse, in vivo) is given as “detected in the systemic bloodstream”.

Consider `[Cl][La]([Cl])[Cl]` [lanthanum chloride], for which, in data set [2], the “electron dense deposits at bile ducts” value is on record as “found within bile ducts but not in their adjacent subepithelial tissue compartments”; the “electron dense deposits at canaliculi and subepithelial compartments” value was “within biliary canaliculi, interhepatocyte cell spaces, and the perisinusoidal Space of Disse”. Further, the “electron microscopy finding in urinary bladder” value in data set [3] (intralumenal pressure 25 mm Hg) is “electron dense deposits were detected in the intercellular spaces between epithelial cells”. Further, the “electron microscopy finding in urinary bladder” value in data set [3] (intralumenal pressure 50 mm Hg) is on record as “some evidence of patchy epithelial denudation”.

For the compound Dextran, the “appearance in systemic bloodstream” value in data set [1] (setting [4]) was “detected in the systemic bloodstream”.

For the compound [14C]-inulin, the “Ave Counts (paracellular leakage)” value is reported as 27 in data set [1] (10 mmHg), 2534 in data set [1] (20 mmHg) and 20134 in data set [1] (40 mmHg). The “appearance in systemic bloodstream” value in data set [1] (setting [4]) is reported as “detected in the systemic bloodstream”.
